Laboratory results: US9486493B2, “Use of a peptide and an analgesic pharmaceutical agent” (priority 2007, dated 2016)
Where no end group is shown, it is not given here.

What was measured:
[1] = test system: acute pain in rat with inflammation; assay: Animal rheumatoid inflammation model (Mycobacterium butyricum into the tarsal joint), thermal stimulation of the tail; format: in vivo; conditions: for antinociceptive effects: control group; for analgesic effect on acute pain: rat with inflammation, 0.5 mg/kg, after two weeks
Method: In an animal rheumatoid inflammation model, an anaesthetised rat was injected with homogenates of thermically inactivated Mycobacterium butyricum suspended in sunflower oil at a volume ratio of 1:1 into the tarsal joint. After two weeks inflammation was observed. The analgesic effect on acute pain was observed using thermal stimulation of the tail.

[2] = test system: pain reaction in mice with inflammation; assay: Animal pain model of tumour metastasis (human ovarian cancer cells into a rear limb), tail dipping in 55° C water; format: in vivo; conditions: for dose necessitated for a similar analgesic effect: control group lacking the inflammation; for analgesic activity (pain reaction): mice with inflammation, after two weeks
Method: In an animal pain model of tumour metastasis, inflammation was induced though the injection of a million human ovarian cancer cells into a rear limb. After two days, we observed a progressing inflammation induced by tumour take. The analgesic activity of biphaline was observed after two weeks, during acute pain caused by tail dipping in water at a temperature of 55° C. […] In the control group, which lacked the inflammation, a similar analgesic effect necessitated the use of a dose of 1 mg/kg.
In an animal pain model of tumour metastasis, inflammation was induced though the injection of a million human ovarian cancer cells into a rear limb. After two days, we observed a progressing inflammation induced by tumour take. The analgesic activity of (Tyr-Ser-Gly-Phe-NH—)2 was observed after two weeks, during acute pain caused by tail dipping in water at a temperature of 55° C. […] In the control group, which lacked the inflammation, a similar analgesic effect necessitated the use of a dose of 4 mg/kg.

[3] = humans; cited from earlier work
[4] = test system: pain reaction in mice with inflammation; assay: Freund's adjuvant limb inflammation in mice, acute pain by tail dipping in 55° C water; format: in vivo
Method: Inflammation was induced in mice through the administration of Freund's adjuvant into a limb. After two days, a progressing inflammation was observed. The analgesic activity of biphalin was observed following a week, during acute pain caused by tail dipping in water at a temperature of 55° C.

[5] = intravenous administration; cited from earlier work
[6] = directly into the subarachnoid space (intrathecal), rats; cited from earlier work

In the case of (Tyr-D-Thr-Gly-Trp-NH—)2, the antinociceptive effects ([1]; after administration of 4 mg/kg) is reported as “no antinociceptive effects were observed” and the “analgesic effect on acute pain” value [1] is reported as “completely blocked pain effects”.
With “(Tyr-Ser-Gly-Phe-NH—)2 (YSGF; also: dimer linked via C-terminal NH hydrazide bridge) [opioid peptide, analogue of biphalin]” the “dose necessitated for a similar analgesic effect” value [2] was 4 mg/kg and the “analgesic activity (pain reaction)” value ([2]; 50 μg/kg intraperitoneal) was “complete disappearance of the pain reaction”.
For `CN1CC[C@]23c4c5ccc(O)c4O[C@H]2[C@@H](O)C=C[C@H]3[C@H]1C5` [morphine], the “minimum effective dose usually used as an initial analgesic dose” value [3] is given as 1 mg.
With `C[C@@H](NC(=O)[C@@H](N)Cc1ccc(O)cc1)C(=O)NCC(=O)N[C@@H](Cc1ccccc1)C(=O)NNC(=O)[C@H](Cc1ccccc1)NC(=O)CNC(=O)[C@@H](C)NC(=O)[C@@H](N)Cc1ccc(O)cc1` [biphalin] the “analgesic activity (pain reaction)” value ([4]; control group lacking the inflammation, same dose 50 μg/kg intravenous) was “no effect was observed”, the “analgesic activity (pain reaction)” value ([4]; mice with inflammation, 50 μg/kg intravenous, one week after Freund's adjuvant) was “complete disappearance of the pain reaction” and the “dose necessitated for a similar analgesic effect” value [2] was 1 mg/kg. The “analgesic activity (pain reaction)” value ([2]; 100 μg/kg intraperitoneal) was “complete disappearance of the pain reaction”, the antinociceptive effects ([1]; same amount (0.5 mg/kg)) was “no antinociceptive effects were observed” and the “analgesic effect on acute pain” value [1] was “completely blocked pain effects”. The “activity relative to morphine” value [5] was “equivalent to that of morphine” and the “activity relative to morphine administered the same way” value [6] was ~1000 fold.
